Assay results as given in article PMC3360746, “CD36 Inhibitors Reduce Postprandial Hypertriglyceridemia and Protect against Diabetic Dyslipidemia and Atherosclerosis” (PLoS ONE, 2012).

Target: T1, CD36 (Homo sapiens, UniProt P16671)
T1 construct: full length human CD36 stably expressed in HEK 293 cells
Experiment: inhibition of Cy3-ox-LDL binding to HEK-CD36 cells at […]°C; affinity cross-linking of ox-LDL to CD36
Assay type: cell-based

T1 sequence (P16671 2-472): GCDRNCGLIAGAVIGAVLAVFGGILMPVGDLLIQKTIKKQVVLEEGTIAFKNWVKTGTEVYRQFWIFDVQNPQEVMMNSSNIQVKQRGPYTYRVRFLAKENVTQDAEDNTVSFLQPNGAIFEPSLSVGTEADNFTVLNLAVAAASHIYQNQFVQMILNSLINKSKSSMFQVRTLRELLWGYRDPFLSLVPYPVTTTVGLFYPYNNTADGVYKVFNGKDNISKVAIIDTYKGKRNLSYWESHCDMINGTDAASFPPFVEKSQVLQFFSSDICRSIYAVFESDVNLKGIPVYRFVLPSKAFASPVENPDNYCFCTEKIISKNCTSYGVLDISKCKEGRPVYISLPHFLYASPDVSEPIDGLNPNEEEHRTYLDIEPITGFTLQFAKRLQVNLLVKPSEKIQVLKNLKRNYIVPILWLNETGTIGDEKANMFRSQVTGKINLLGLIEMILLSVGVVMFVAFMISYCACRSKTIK

| SMILES | IC50 |
| --- | --- |
| COc1cc(O)c(/C=N/NC(=O)c2ccc3nccn3c2)c(OC)c1 [AP5258] | 5 ± 1 µM |
| COc1cc(O)c(/C=N/NC(=O)c2cc3ccccc3s2)c(OC)c1 [AP5055] | 1 ± 0.1 µM |
